{
  "source": "patent US20180125992A1",
  "about": "“DRUG DELIVERY CONJUGATES OF TERTIARY AMINE […]” (ENDOCYTE, INC., priority 2016, published 2018)",
  "tested_on": "KB cells",
  "test": "In vitro FR specific activity of folate conjugates: 3H-thymidine incorporation in KB cells",
  "assay_type": "cell-based",
  "conditions": "2 h pulse at 37° C., chase up to 72 h, without excess folate",
  "protocol": "KB cells were seeded in individual 24-well Falcon plates and allowed to form nearly confluent monolayers overnight in FFRPMI/HIFCS. Thirty minutes prior to the addition of folate-conjugate, spent medium was aspirated from all wells and replaced with either fresh FFRPMI or FFRPMI supplemented with 100 μM FA. Each well then received 1 mL of medium containing increasing concentrations of folate-conjugate (3 wells per sample). Cells were pulsed for 2 h at 37° C., rinsed 4 times with 0.5 mL of medium and then chased in 1 mL of fresh medium up to 72 h. Spent medium was aspirated from all wells and replaced with fresh medium containing 5 μCi/mL of ^3H-thymidine. Following a 2 h incubation at 37° C., cells were washed 3 times with 0.5 mL of PBS and then treated with 0.5 mL of ice-cold 5% trichloroacetic acid per well. After 15 min, the trichloroacetic acid was aspirated and the cells solubilized by the addition of 0.5 mL of 0.25 N sodium hydroxide for 15 min at room temperature. Four hundred and fifty μL of each solubilized sample were transferred to scintillation vials containing 3 mL of Ecolume scintillation cocktail and counted in a liquid scintillation counter. Final results were expressed as the percentage of ^3H-thymidine incorporation relative to untreated controls.",
  "data": [
    {"smiles": "CCCC(=O)OCN(C(=O)[C@@H](NC(=O)[C@H]1CCCC[N+]1(C)CCSSC[C@H](NC(=O)[C@H](CC(=O)O)NC(=O)[C@H](CC(=O)O)NC(=O)[C@H](CCCNC(=N)N)NC(=O)[C@H](CC(=O)O)NC(=O)CC[C@H](NC(=O)c1ccc(NCc2cnc3nc(N)[nH]c(=O)c3n2)cc1)C(=O)O)C(=O)O)C(C)CC)[C@H](C[C@@H](OC(C)=O)c1nc(C(=O)N[C@@H](Cc2ccccc2)C[C@H](C)C(=O)OC)cs1)C(C)C", "note": "(some centres unmarked) [Compound 1]", "values": [
      {"measurement": "IC50", "value": 5, "unit": "nM"}
    ]},
    {"smiles": "CC/C=C/CN(C(=O)[C@@H](NC(=O)[C@H]1CCCC[N+]1(C)Cc1ccc(SSC[C@H](NC(=O)[C@H](CC(=O)O)NC(=O)[C@H](CC(=O)O)NC(=O)[C@H](CCCNC(=N)N)NC(=O)[C@H](CC(=O)O)NC(=O)CC[C@H](NC(=O)c2ccc(NCc3cnc4nc(N)[nH]c(=O)c4n3)cc2)C(=O)O)C(=O)O)cc1)C(C)CC)[C@H](C[C@@H](OCC)c1nc(C(=O)N[C@@H](Cc2ccc(O)cc2)C[C@H](C)C(=O)O)cs1)C(C)C", "note": "(some centres unmarked) [Compound 2]", "values": [
      {"measurement": "IC50", "value": 7, "unit": "nM"}
    ]}
  ]
}
